Data published in patent publication US12681015B2, “Methods for predicting patient response to DMARDs” (Queen Mary University of London, priority 2019, dated 2026).

What was measured:
[1] = tested on: MTX-induced upregulation of SPM in human peripheral blood; test: Human whole blood incubated with L002 or SB202190, then MTX; plasma SPM by LC-MS/MS; assay type: cell-based; conditions: L002 2 μM or SB202190 5 μM, then MTX 100 nM, 37° C., 45 min
Description: (§1) Plasma was collected by centrifugation and SPM were identified and quantified using LC-MS/MS based lipid mediator profiling (see methods for details). (A) sPLS-DA score plot of identified lipid mediator concentrations (B) Contribution for the top 10 differentially regulated mediators in principle component 1. Results are representative of n=6 volunteers per group with experiments conducted on two distinct occasions. (C-G) Inflammatory arthritis was initiated in mice by the administration of arthritogenic serum on days 0 and 2. […] Disease severity was assessed by measuring (C) disease activity using a 26-point clinical score, (D) joint histology using hematoxylin and eosin staining of knee sections collected 8 days post disease initiation, original magnification=×4 and (E) body weight. (F,G) Eight days post disease initiation joints were collected, (F) leukocytes were liberated from the paws and the number of neutrophils infiltrated into the paw was determined using flow cytometry and fluorescently labelled antibodies. (G) Lipid mediators were extracted and the concentrations of LTB4 were determined using liquid chromatography tandem-mass spectrometry. C, E, F are mean±SEM and G are percentage of vehicle of n=4 mice per group and experiments were conducted on two distinct occasions. Results for D are representative of n=8 mice per group. * p<0.05 vs Vehicle group for C and E using two-way ANOVA, for F one-way ANOVA, for G using one-sample t test. F=femur; m=meniscus; PF=pannus formation; T=tibia.
Plasma was obtained from peripheral blood of healthy volunteers, patients and mouse following centrifugation at 1500×g for 10 min at room temperature. Paws were collected and immediately transferred to liquid nitrogen prior to homogenization in 1 ml ice cold MeOH and homogenized using a glass dounce. All samples for LC-MS/MS-based profiling were extracted using solid-phase extraction columns as in Walker, M. E., Souza, P. R., Colas, R. A. & Dalli, J. “13-Series resolvins mediate the leukocyte-platelet actions of atorvastatin and pravastatin in inflammatory arthritis.” FASEB J 31, 3636-3648 (2017), the contents of which are incorporated herein by reference. Prior to sample extraction, deuterated internal standards, representing each region in the chromatographic analysis (500 pg each) were added to facilitate quantification. Samples were kept at −20° C. for a minimum of 45 min to allow protein precipitation. Supernatants were subjected to solid phase extraction, methyl formate fraction collected, brought to dryness and suspended in phase (methanol/water, 1:1, vol/vol) for injection on a Shimadzu LC-20AD HPLC and a Shimadzu SIL-20AC autoinjector, paired with a QTrap 5500 or QTrap 6500 plus (Sciex). […]

[2] = tested on: inflammatory arthritis in mice; test: Inflammatory arthritis in mice treated with MTX plus L002 or MTX plus SB202190; assay type: in vivo; conditions: for anti-arthritic actions of MTX: MTX 25 mg/kg plus inhibitor 20 mg/kg i.p. days 3, 5 and 7; for weight loss, a marker of disease activity / joint inflammation / joint concentrations of LTB4 / joint damage / ability of MTX to regulate neutrophil trafficking to the inflamed joint: MTX plus inhibitor 20 mg/kg; for joint inflammation: 26-point clinical score; for joint concentrations of LTB4: day 8, LC-MS/MS; for joint damage: knee histology, day 8; for ability of MTX to regulate neutrophil trafficking to the inflamed joint: paws, day 8, flow cytometry
Description: as §1
Plasma was obtained from peripheral blood of healthy volunteers, patients and mouse following centrifugation at 1500×g for 10 min at room temperature. Paws were collected and immediately transferred to liquid nitrogen prior to homogenization in 1 ml ice cold MeOH and homogenized using a glass dounce. All samples for LC-MS/MS-based profiling were extracted using solid-phase extraction columns as in Walker, M. E., Souza, P. R., Colas, R. A. & Dalli, J. “13-Series resolvins mediate the leukocyte-platelet actions of atorvastatin and pravastatin in inflammatory arthritis.” FASEB J 31, 3636-3648 (2017), the contents of which are incorporated herein by reference. Prior to sample extraction, deuterated internal standards, representing each region in the chromatographic analysis (500 pg each) were added to facilitate quantification. Samples were kept at −20° C. for a minimum of 45 min to allow protein precipitation. Supernatants were subjected to solid phase extraction, methyl formate fraction collected, brought to dryness and suspended in phase (methanol/water, 1:1, vol/vol) for injection on a Shimadzu LC-20AD HPLC and a Shimadzu SIL-20AC autoinjector, paired with a QTrap 5500 or QTrap 6500 plus (Sciex). An Agilent Poroshell 120 EC-C18 column (100 mm×4.6 mm×2.7 μm) was kept at 50° C. and mediators eluted using a mobile phase consisting of methanol/water/acetic acid of 20:80:0.01 (vol/vol/vol) that was ramped to 50:50:0.01 (vol/vol/vol) over 0.5 min and then to 80:20:0.01 (vol/vol/vol) from 2 min to 11 min, maintained till 14.5 min and then rapidly ramped to 98:2:0.01 (vol/vol/vol) for the next 0.1 min. This was subsequently maintained at 98:2:0.01 (vol/vol/vol) for 5.4 min, and the flow rate was maintained at 0.5 ml/min. QTrap 5500 or QTrap 6500 plus were operated using a multiple reaction monitoring method as in Walker, M. E., Souza, P. R., Colas, R. A. & Dalli, J. “13-Series resolvins mediate the leukocyte-platelet actions of atorvastatin and pravastatin in inflammatory arthritis.” FASEB J 31, 3636-3648 (2017), the contents of which are incorporated herein by reference. […]

[3] = known side effect; cited from earlier work

Row | SMILES | MTX-induced upregulation of SPM [1] | concentrations of several mediators including PD1, MaR2n-3 DPA and RvD1 [1] | anti-arthritic actions of MTX [2] | weight loss, a marker of disease activity [2] | joint inflammation [2] | joint concentrations of LTB4 [2] | joint damage [2] | ability of MTX to regulate neutrophil trafficking to the inflamed joint [2] | High blood pressure, share of people [3]
1 | Oc1ccc(-c2nc(-c3ccncc3)c(-c3ccc(F)cc3)[nH]2)cc1 [SB202190] | blocking | decreasing | reversed | increase | increase | increase | increase | reversed | 
2 | Cc1oncc1C(=O)Nc1ccc(C(F)(F)F)cc1 [Leflunomide] |  |  |  |  |  |  |  |  | up to 10% of people
3 | COc1ccc(S(=O)(=O)ON=C2C=C(C)C(=O)C(C)=C2)cc1 [L002] | blocking | decreasing | reversed | increase | increase | increase | increase | reversed | 
